{
  "source": "patent US20100143507A1",
  "about": "“CARBOXYLIC ACID INHIBITORS OF HISTONE DEACETYLASE, GABA TRANSAMINASE AND SODIUM CHANNEL” (AUSPEX PHARMACEUTICALS, INC., priority 2008, published 2010)",
  "assay": "In vitro liver microsomal stability assay",
  "format": "in vitro ADME",
  "settings": "1 mg per mL liver microsome protein, NADPH-generating system, 1 μM test compound, 37° C., 0-60 minutes, LC/MS/MS",
  "description": "Liver microsomal stability assays were conducted with 1 mg per mL liver microsome protein with an NADPH-generating system (2.2 mM NADPH, 25.6 mM glucose 6-phosphate, 6 units per mL glucose 6-phosphate dehydrogenase and 3.3 mM magnesium chloride) in 2% sodium bicarbonate. Test compounds were prepared as solutions in 20% acetonitrile-water and added to the assay mixture (final assay concentration 1 μM) and incubated at 37° C. Final concentration of acetonitrile in the assay should be <1%. Aliquots (50 μL) were taken out at times 0, 15, 30, 45, and 60 minutes, and diluted with ice cold acetonitrile (200 μL) to stop the reactions. Samples were centrifuged at 12,000 RPM for 10 minutes to precipitate proteins. Supernatants were transferred to microcentrifuge tubes and stored for LC/MS/MS analysis of the degradation half-life of the test compounds. […] In certain embodiments, the increase in degradation half-life is at least 5%; at least 10%; or at least 15%.",
  "data": [
    {"smiles": "[2H]C([2H])([2H])C([2H])([2H])C([2H])([2H])C([2H])(C(=O)O)C([2H])([2H])C([2H])([2H])C([2H])([2H])[2H]", "note": "[valproic acid-d15]", "values": [
      {"measurement": "degradation half-life as compared to the non-isotopically enriched drug", "result": "increased degradation half-life"}
    ]}
  ]
}
